Among the data in US10329289B2, “6,7-dihydro-5H-pyrrolo[3,4-B]pyridin-5-one allosteric modulators of the M4 muscarinic acetylcholine receptor” (Merck Sharp & Dohme Corp., priority 2015, dated 2019) are EC50 values, retold here.

This test addresses T1, human M4 muscarinic acetylcholine receptor (Homo sapiens, UniProt P08173).
T1 construct: expressed in transfected cells; host or cells: CHO-K1
T1 sequence (P08173 1-479): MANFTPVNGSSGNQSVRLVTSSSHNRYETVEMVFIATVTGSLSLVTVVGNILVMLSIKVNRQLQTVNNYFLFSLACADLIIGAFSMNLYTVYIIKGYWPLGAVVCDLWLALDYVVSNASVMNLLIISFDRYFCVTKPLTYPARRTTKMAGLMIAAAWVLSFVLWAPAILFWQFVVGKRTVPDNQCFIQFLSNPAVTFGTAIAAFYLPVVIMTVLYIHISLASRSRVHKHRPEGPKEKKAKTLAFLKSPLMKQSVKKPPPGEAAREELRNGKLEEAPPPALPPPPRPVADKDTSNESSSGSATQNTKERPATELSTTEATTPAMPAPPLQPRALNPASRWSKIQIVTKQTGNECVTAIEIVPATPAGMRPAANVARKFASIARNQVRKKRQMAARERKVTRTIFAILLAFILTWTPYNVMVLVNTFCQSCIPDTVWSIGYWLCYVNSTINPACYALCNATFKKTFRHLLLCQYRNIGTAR
As to the kind of experiment: human FLIPR-based M4 PAM assay (Ca2+ mobilization, CHO-K1 cells with human M4 receptor and Gαqi5). Type of test: cell-based. The following applies: acetylcholine at 20% of maximum response, read-out: M4 PAM IP. In outline: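 CHO-K1 cells stably expressing human M4 and chimeric Gαqi5 were dye-loaded ~1 h at 37 °C and read for Ca2+ fluorescence. Compound followed by acetylcholine at an EC20 (sometimes an EC70 third addition); inflection point from a 4-parameter logistic fit.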
Background: Calcium assays in cells follow changes in intracellular calcium, usually with a dye or a luminescent sensor.
On to `Cc1cc2c(nc1N1CCC(Oc3cnc4c(c3)COCC4)CC1)CN(C)C2=O` [Example 53, 2-(4-((7,8-dihydro-5H-pyrano[4,3-b]pyridin-3-yl)oxy)piperidin-1-yl)-3,6-dimethyl-6,7-dihydro-5H-pyrrolo[3,4-b]pyridin-5-one], for which the EC50 came out at 449 nM.

On to `CCc1cc2c(nc1N1CCC(Oc3ccc4cnn(C)c4c3)CC1)CN(CCO)C2=O` [Example 268A, 3-ethyl-6-(2-hydroxyethyl)-2-(4-((1-methyl-1H-indazol-6-yl)oxy)piperidin-1-yl)-6,7-dihydro-5H-pyrrolo[3,4-b]pyridin-5-one], for which the EC50 is 169 nM.

On to `Cc1cc2c(nc1N1CCC(Oc3ccc4nc(C)n(C)c4c3)CC1)CNC2=O` [Example 210, 2-(4-((1,2-dimethyl-1H-benzo[d]imidazol-6-yl)oxy)piperidin-1-yl)-3-methyl-6,7-dihydro-5H-pyrrolo[3,4-b]pyridin-5-one], for which the EC50 was found to be 2580 nM.

Turning to `CCc1cc2c(nc1N1CCC(Oc3ccc4c(c3)COCC4)CC1)[C@@H](CO)N(C)C2=O` [Example 361, (S)-3-ethyl-7-(hydroxymethyl)-2-(4-(isochroman-7-yloxy)piperidin-1-yl)-6-methyl-6,7-dihydro-5H-pyrrolo[3,4-b]pyridin-5-one], the EC50 was 85 nM.

`CCc1cc2c(nc1N1CCC(Oc3ccc4c(c3)COC4)CC1)CNC2=O` [Example 213, 2-(4-((1,3-dihydro-2-benzofuran-5-yl)oxy)piperidin-1-yl)-3-ethyl-6,7-dihydro-5H-pyrrolo[3,4-b]pyridin-5-one]: the EC50 amounted to 61 nM.

With `COCCCN1Cc2nc(N3CCC(Oc4ccc(OC)nc4)CC3)c(C)cc2C1=O` [Example 251, 6-(3-methoxypropyl)-2-(4-((6-methoxypyridin-3-yl)oxy)piperidin-1-yl)-3-methyl-6,7-dihydro-5H-pyrrolo[3,4-b]pyridin-5-one], the EC50 came out at 198 nM.

Turning to `CCc1cc2c(nc1N1CCC(Oc3ccc4c(cnn4C)c3)CC1)[C@@H](CO)N(C)C2=O` [Example 363, (S)-3-ethyl-7-(hydroxymethyl)-6-methyl-2-(4-((1-methyl-1H-indazol-5-yl)oxy)piperidin-1-yl)-6,7-dihydro-5H-pyrrolo[3,4-b]pyridin-5-one], the EC50 amounted to 100 nM.

As for `COc1ccc(OC2CCN(c3nc4c(cc3C)C(=O)N(CCO)C4)CC2)cn1` [Example 238, 6-(2-hydroxyethyl)-2-(4-((6-methoxypyridin-3-yl)oxy)piperidin-1-yl)-3-methyl-6,7-dihydro-5H-pyrrolo[3,4-b]pyridin-5-one], the EC50 is 49 nM.

For the molecule `COCc1cccc(OC2CCN(c3nc4c(cc3C)C(=O)NC4)CC2)c1` [Example 57, 2-(4-(3-(methoxymethyl)phenoxy)piperidin-1-yl)-3-methyl-6,7-dihydro-5H-pyrrolo[3,4-b]pyridin-5-one], the EC50 was determined as 61 nM.

On to `COc1ccc(OC2CCN(c3nc4c(cc3C#N)C(=O)NC4)CC2)cn1` [Example 223, 2-(4-((6-methoxypyridin-3-yl)oxy)piperidin-1-yl)-5-oxo-6,7-dihydro-5H-pyrrolo[3,4-b]pyridine-3-carbonitrile], for which the EC50 stood at 344 nM.

Take `Cc1cc2c(nc1N1CCC(Oc3ccc4c(c3)CN(C(=O)OC(C)(C)C)CC4)CC1)CNC2=O` [Example 137, tert-butyl 7-((1-(3-methyl-5-oxo-6,7-dihydro-5H-pyrrolo[3,4-b]pyridin-2-yl)piperidin-4-yl)oxy)-3,4-dihydroisoquinoline-2(1H)-carboxylate]: the EC50 was 515 nM.

`COc1ccc(O[C@@H]2CCN(c3nc4c(cc3C)C(=O)NC4)C[C@@H]2C)cn1` [Example 29A, 2-((3S,4R)-4-((6-methoxypyridin-3-yl)oxy)-3-methylpiperidin-1-yl)-3-methyl-6,7-dihydro-5H-pyrrolo[3,4-b]pyridin-5-one]: the EC50 was 63 nM.

On to `Cc1cc2c(nc1N1CCC(Oc3ccc4c(c3)C(=O)N(C)C4)CC1)CNC2=O` [Example 67, 3-methyl-2-(4-((2-methyl-3-oxoisoindolin-5-yl)oxy)piperidin-1-yl)-6,7-dihydro-5H-pyrrolo[3,4-b]pyridin-5-one], for which the EC50 was 136 nM.

For the molecule `Cc1cc2c(nc1N1CCC(Oc3ccc4[nH]ncc4c3)CC1)CN(C)C2=O` [Example 12, 2-(4-((1H-indazol-5-yl)oxy)piperidin-1-yl)-3,6-dimethyl-6,7-dihydro-5H-pyrrolo[3,4-b]pyridin-5-one], the EC50 came to 16 nM.

Turning to `CCOc1ccc(OC2CCN(c3nc4c(cc3C)C(=O)N[C@H]4CCO)CC2)cn1` [Example 234A, (S)-2-(4-((6-Ethoxypyridin-3-yl)ox)piperidin-1-yl)-7-(2-hydroxyethyl)-3-methyl-6,7-dihydro-5H-pyrrolo[3,4-b]pyridin-5-one], the EC50 is 382 nM.

On to `Cc1cc2c(nc1N1CCC(Oc3ccc(C#N)cc3)CC1)CNC2=O` [Example 84, 4-((1-(3-methyl-5-oxo-6,7-dihydro-5H-pyrrolo[3,4-b]pyridin-2-yl)piperidin-4-yl)oxy)benzonitrile], for which the EC50 stood at 229 nM.

Take `Cc1cc2c(nc1N1CCC(Oc3cnn(C4CC4)c3)CC1)CNC2=O` [Example 311A, 2-(4-((1-cyclopropyl-1H-pyrazol-4-yl)oxy)piperidin-1-yl)-3-methyl-6,7-dihydro-5H-pyrrolo[3,4-b]pyridin-5-one]: the EC50 was determined as 108 nM.

Take `Cc1cc2c(nc1N1CCC(OCC3(C)CC3)CC1)CN(C)C2=O` [Example 338, 3,6-dimethyl-2-(4-((1-methylcyclopropyl)methoxy)piperidin-1-yl)-6,7-dihydro-5H-pyrrolo[3,4-b]pyridin-5-one]: the EC50 is 40 nM.

On to `Cc1cc2c(nc1N1CC[C@@H](Oc3ccc4c(cnn4C)c3)[C@H](F)C1)CN(CCO)C2=O` [Example 241A, 2-((3R,4R)-3-fluoro-4-((1-methyl-1H-indazol-5-yl)oxy)piperidin-1-yl)-6-(2-hydroxyethyl)-3-methyl-6,7-dihydro-5H-pyrrolo[3,4-b]pyridin-5-one], for which the EC50 stood at 93 nM.

For `Cc1cc2c(nc1N1CC[C@@H](Oc3ccccc3)[C@@H](F)C1)CN(C(C)C)C2=O` [Example 248, 2-((3S,4R)-3-fluoro-4-phenoxypiperidin-1-yl)-6-isopropyl-3-methyl-6,7-dihydro-5H-pyrrolo[3,4-b]pyridin-5-one], the EC50 amounted to 88 nM.

`Cc1cc2c(nc1N1CCC(OCC3(F)CCCC3)CC1)CNC2=O` [Example 180, 2-(4-((1-fluorocyclopentyl)meth-oxy)piperidin-1-yl)-3-methyl-6,7-dihydro-5H-pyrrolo[3,4-b]pyridin-5-one]: the EC50 worked out at 1650 nM.

Consider `COC(=O)c1cncc(OC2CCN(c3nc4c(cc3C)C(=O)NC4)CC2)c1` [Example 111, methyl 5-((1-(3-methyl-5-oxo-6,7-dihydro-5H-pyrrolo[3,4-b]pyridin-2-yl)piperidin-4-yl)oxy)nicotinate], for which the EC50 amounted to 4360 nM.

Turning to `Cc1cc2c(nc1N1CCC(Oc3cnc4c(c3)CCCO4)CC1)CNC2=O` [Example 194, 2-(4-((3,4-dihydro-2H-pyrano[2,3-b]pyridin-6-yl)oxy)piperidin-1-yl)-3-methyl-6,7-dihydro-5H-pyrrolo[3,4-b]pyridin-5-one], the EC50 was determined as 532 nM.

`COc1ccc(OC2CCN(c3nc4c(c(CO)c3C)C(=O)NC4)CC2)cn1` [Example 302, 4-(hydroxymethyl)-2-(4-((6-methoxypyridin-3-yl)oxy)piperidin-1-yl)-3-methyl-6,7-dihydro-5H-pyrrolo[3,4-b]pyridin-5-one]: the EC50 was 819 nM.

Turning to `COc1ccc(OC2CCN(c3nc4c(cc3C)C(=O)N(C[C@@H](O)C(F)(F)F)C4)CC2)cn1` [Example 318, (R)-2-(4-((6-Methoxypyridin-3-yl)oxy)piperidin-1-yl)-3-methyl-6-(3,3,3-trifluoro-2-hydroxypropyl)-6,7-dihydro-5H-pyrrolo[3,4-b]pyridin-5-one], the EC50 was determined as 155 nM.

`Cc1cc2c(nc1N1CCC(Oc3ccccn3)CC1)CNC2=O` [Example 131, 3-methyl-2-(4-(pyridin-2-yloxy)piperidin-1-yl)-6,7-dihydro-5H-pyrrolo[3,4-b]pyridin-5-one]: the EC50 turned out to be 1520 nM.

Regarding `Cc1cc2c(nc1N1CCC(Oc3ccccc3)CC1)CN(C(C)C)C2=O` [Example 247, 6-isopropyl-3-methyl-2-(4-phenoxypiperidin-1-yl)-6,7-dihydro-5H-pyrrolo[3,4-b]pyridin-5-one], the EC50 was 137 nM.

For `Cc1cc2c(nc1N1CCC(Oc3ccc(O[C@@H](C)CO)nc3)CC1)CNC2=O` (single isomer, unassigned) [Example 141B], the EC50 stood at 55 nM.

With `Cc1cc2c(nc1N1CCC(Oc3ccc4c(c3)CCCN4)CC1)CNC2=O` [Example 22, 3-methyl-2-(4-((1,2,3,4-tetrahydroquinolin-6-yl)oxy)piperidin-1-yl)-6,7-dihydro-5H-pyrrolo[3,4-b]pyridin-5-one], the EC50 is 32 nM.

In the case of `Cc1cc2c(nc1N1CCC(OCC(C)C(F)(F)F)CC1)CNC2=O` (stereo not shown) [Example 188, 3-methyl-2-(4-(3,3,3-trifluoro-2-methylpropoxy)piperidin-1-yl)-6,7-dihydro-5H-pyrrolo[3,4-b]pyridin-5-one], the EC50 turned out to be 1220 nM.

For the molecule `Cc1c(N2CCC(Oc3ccc4c(c3)CCOC4)CC2)nc2c(c1C)C(=O)NC2` [Example 336, 2-(4-(isochroman-6-yloxy)piperidin-1-yl)-3,4-dimethyl-6,7-dihydro-5H-pyrrolo[3,4-b]pyridin-5-one], the EC50 amounted to 182 nM.
